Test results: patent US8791267B2, “Biaryl PDE4 inhibitors for treating inflammatory, cardiovascular and CNS disorders” (Decode Genetics EHF, priority 2007, dated 2014)
pIC50: −log10 of the molar value. Structures can show the parent of a compound that is named as a salt.

What follows are compounds tested against PDE4 (Homo sapiens, UniProt Q08499) (assay: In-vitro assay for PDE4 enzymes, real-time enzyme-coupled spectrophotometric assay (Table 9)). Settings: human PDE4D; activity class, Table 9; read-out: hPDE4D.
Chain of PDE4 (Q08499 whole entry): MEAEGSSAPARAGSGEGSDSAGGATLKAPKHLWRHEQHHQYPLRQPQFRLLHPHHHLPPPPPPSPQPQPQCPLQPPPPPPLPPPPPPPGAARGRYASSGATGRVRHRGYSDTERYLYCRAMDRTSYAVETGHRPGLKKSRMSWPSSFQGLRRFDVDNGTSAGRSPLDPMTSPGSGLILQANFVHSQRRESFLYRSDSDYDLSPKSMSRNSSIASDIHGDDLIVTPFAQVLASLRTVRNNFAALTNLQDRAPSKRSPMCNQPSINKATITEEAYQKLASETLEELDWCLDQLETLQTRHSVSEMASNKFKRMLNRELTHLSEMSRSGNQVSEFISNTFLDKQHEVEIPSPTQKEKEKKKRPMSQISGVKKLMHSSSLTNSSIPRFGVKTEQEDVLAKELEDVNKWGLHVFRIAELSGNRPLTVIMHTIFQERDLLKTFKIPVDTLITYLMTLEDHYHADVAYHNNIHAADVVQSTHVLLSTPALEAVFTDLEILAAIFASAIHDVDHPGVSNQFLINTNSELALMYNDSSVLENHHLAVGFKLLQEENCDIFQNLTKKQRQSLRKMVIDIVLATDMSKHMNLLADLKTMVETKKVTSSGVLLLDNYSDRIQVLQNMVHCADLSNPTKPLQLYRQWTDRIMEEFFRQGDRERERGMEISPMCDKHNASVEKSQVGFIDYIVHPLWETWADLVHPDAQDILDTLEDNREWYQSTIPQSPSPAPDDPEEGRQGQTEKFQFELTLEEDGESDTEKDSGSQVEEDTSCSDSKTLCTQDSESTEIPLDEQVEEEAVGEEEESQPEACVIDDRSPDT
Type: biochemical
`COc1ccc(Cc2ccc(N3CCC[C@H]3C(C)(C)O)nc2)c(F)c1-c1cccc(Cl)c1` [P-581, 2-{(S)-1-[5-(3′-chloro-2-fluoro-6-methoxy-biphenyl-3-ylmethyl)-pyridin-2-yl]-pyrrolidin-2-yl}-propan-2-ol] gave a pIC50 greater than 5.30.
Compound `COc1ccc(Cn2cncn2)nc1-c1cccc(C(F)(F)F)c1` [P-064, 3-methoxy-6-[1,2,4]triazol-1-ylmethyl-2-(3-trifluoromethyl-phenyl)-pyridine] has a pIC50 of 4.70 to 5.30.
`COc1ccc(Cc2ccc(NC(C)=O)cc2)c(F)c1-c1cccc(N)c1` [P-167] showed a pIC50 greater than 5.30.
`COc1ccc(CO)nc1-c1cccc([N+](=O)[O-])c1` [P-491, [5-methoxy-6-(3-nitro-phenyl)-pyridin-2-yl]-methanol] showed a pIC50 of 4.40 to 4.70.
`COc1ccc(Cc2ccc(F)cc2)nc1-c1cccc(C(F)(F)F)c1` [P-065, 6-(4-fluoro-benzyl)-3-methoxy-2-(3-trifluoromethyl-phenyl)-pyridine] showed a pIC50 greater than 5.30.
Compound `COc1ccc(Cc2ccc(F)cc2)cc1-c1cccc(SC)c1` [P-151, 5-(4-Fluoro-benzyl)-2-methoxy-3′-methylsulfanyl-biphenyl] has a pIC50 greater than 5.30.
Compound `CCNC(=O)N1CCN(c2ccc(Cc3ccc(OC)c(-c4cccc(Cl)c4)c3F)cn2)CC1` [P-514, 4-[5-(3′-chloro-2-fluoro-6-methoxy-biphenyl-3-ylmethyl)-pyridin-2-yl]-piperazine-1-carboxylic acid ethylamide hydrochloride] has a pIC50 greater than 5.30.
Compound `CN(C)CCOc1ccc(Cc2ccc(NC(N)=O)cc2)cc1-c1cccc(Cl)c1` [P-548, {4-[3′-Chloro-6-(2-dimethylamino-ethoxy)-biphenyl-3-ylmethyl]-phenyl}-urea] has a pIC50 of 4.70 to 5.30.
Work on `COc1ccc(CN2CC[C@@H](O)C2)cc1-c1cccc(C(F)(F)F)c1` [P-078] yielded a pIC50 of 4.70 to 5.30.
`COc1ccc(Cc2ccc(C(C)NC(N)=O)nc2)c(F)c1-c1cccc(Cl)c1` (stereo not drawn) [P-613, {1-[5-(3′-Chloro-2-fluoro-6-methoxy-biphenyl-3-ylmethyl)-pyridin-2-yl]-ethyl}-urea hydrochloride] showed a pIC50 greater than 5.30.
For `COc1ccc(Cc2ccc(F)cc2)cc1-c1ccc2c(c1)OCO2` [P-003, 5-[5-(4-Fluoro-benzyl)-2-methoxy-phenyl]-benzo[1,3]dioxole], the pIC50 was greater than 5.30.
Work on `CNCC(=O)Nc1ccc(Cc2ccc(OC)c(-c3cccc(Cl)c3)c2F)cc1` [P-289] yielded a pIC50 greater than 5.30.
`COc1ccc(Cc2ccc(NC(=O)CN)cc2)c(F)c1-c1cccc(Cl)c1` [P-273] gave a pIC50 greater than 5.30.
Work on `COc1ccc(Cc2cccc(NC(C)=O)c2)cc1-c1cccc(Cl)c1` [P-477, N-[3-(3′-Chloro-6-methoxy-biphenyl-3-ylmethyl)-phenyl]-acetamide] yielded a pIC50 greater than 5.30.
`CNC(=O)Cc1ccc(OC)c(-c2cccc([N+](=O)[O-])c2)c1` [P-027] showed a pIC50 greater than 5.30.
For `COc1ccc(Cc2ccc(N3CCNCC3)nc2)c(F)c1-c1cccc(Cl)c1` [P-423, 1-[5-(3′-chloro-2-fluoro-6-methoxy-biphenyl-3-ylmethyl)-pyridin-2-yl]-piperazine], the pIC50 was 4.70 to 5.30.
`COc1ccc(Cc2ccccc2CNC=O)cc1-c1cccc([N+](=O)[O-])c1` [P-158, N-[2-(6-Methoxy-3′-nitro-biphenyl-3-ylmethyl)-benzyl]-formamide] gave a pIC50 of 4.70 to 5.30.
`COc1ccc(Cc2ccc(F)cc2)cc1-n1ccc(C(F)(F)F)n1` [P-396, 1-[5-(4-Fluoro-benzyl)-2-methoxy-phenyl]-3-trifluoromethyl-1H-pyrazole] showed a pIC50 greater than 5.30.
Compound `COc1ccc(Cc2nnc(N)o2)cc1-c1cccc(Cl)c1` [P-306, 5-(3′-Chloro-6-methoxy-biphenyl-3-ylmethyl)-[1,3,4]oxadiazol-2-ylamine] has a pIC50 of 4.70 to 5.30.
For `COc1ccc(Cc2ccc(N(C)CC(N)=O)nc2)c(F)c1-c1cccc(Cl)c1` [P-622, 2-{[5-(3′-Chloro-2-fluoro-6-methoxy-biphenyl-3-ylmethyl)-pyridin-2-yl]-methyl-amino}-acetamide], the pIC50 was greater than 5.30.
`COc1ccc(Cc2ccc(N3CCOCC3)nc2)c(F)c1-c1cccc(Cl)c1` [P-377] was tested, and the pIC50 was greater than 5.30.
